Reference: ChEMBL document CHEMBL1255421, “In vitro fungicidal activities of echinocandins against Candida metapsilosis, C. orthopsilosis, and C. parapsilosis evaluated by time-kill studies” (2010)
Values after ≈ are worked out from the molar mass of the structure shown. Active and inactive are the calls of the source. The calls are words filed in the database; no cut-off is given here.

What was measured:
Candida metapsilosis [1] = test: Fungicidal activity against Candida metapsilosis isolate CP-133 bloodstream form by CLSI method; assay type: functional; settings: Lodderomyces metapsilosis
Candida orthopsilosis [2] = test: Antifungal activity against Candida orthopsilosis clinical isolate bloodstream form assessed as time required for 99.9% reduction in fungal growth at 16 mg/L by time-kill assay; assay type: functional
Candida metapsilosis [3] = test: Antifungal activity against Candida metapsilosis clinical isolate bloodstream form assessed as time required for 50% reduction in fungal growth at 32 mg/L by time-kill assay; assay type: functional
Candida metapsilosis [4] = test: Antifungal activity against Candida metapsilosis clinical isolate bloodstream form assessed as time required for 90% reduction in fungal growth at 4 mg/L by time-kill assay; assay type: functional
Candida metapsilosis [5] = test: Antifungal activity against Candida metapsilosis clinical isolate bloodstream form assessed as time required for 90% reduction in fungal growth at 0.25 mg/L by time-kill assay; assay type: functional
Candida parapsilosis [6] = test: Antifungal activity against Candida parapsilosis clinical isolate bloodstream form assessed as time required for 99.9% reduction in fungal growth at 4 mg/L by time-kill assay; assay type: functional
Candida metapsilosis [7] = test: Antifungal activity against Candida metapsilosis clinical isolate bloodstream form assessed as mild induction of fungal death at 0.03 to 32 mg/L after 6 hrs by time-kill assay; assay type: functional, organism-based
Candida parapsilosis [8] = test: Antifungal activity against Candida parapsilosis clinical isolate bloodstream form assessed as time required for 90% reduction in fungal growth at 1 mg/L by time-kill assay; assay type: functional
Candida metapsilosis [9] = test: Antifungal activity against Candida metapsilosis clinical isolate bloodstream form assessed as time required for 90% reduction in fungal growth at 16 mg/L by time-kill assay; assay type: functional
Candida parapsilosis [10] = test: Antifungal activity against Candida parapsilosis clinical isolate bloodstream form assessed as induction of fungal killing rate at 0.03 to 32 mg/L measured at 6 hrs by time-kill assay; assay type: functional, organism-based
Candida parapsilosis [11] = test: Antifungal activity against Candida parapsilosis clinical isolate bloodstream form assessed as time required for 50% reduction in fungal growth at 4 mg/L by time-kill assay; assay type: functional
Candida metapsilosis [12] = test: Antifungal activity against Candida metapsilosis clinical isolate bloodstream form assessed as time required for 99% reduction in fungal growth at 32 mg/L by time-kill assay; assay type: functional
Candida metapsilosis [13] = test: Antifungal activity against Candida metapsilosis clinical isolate bloodstream form assessed as time required for 50% reduction in fungal growth at 16 mg/L by time-kill assay; assay type: functional
Candida orthopsilosis [14] = test: Antifungal activity against Candida orthopsilosis clinical isolate bloodstream form assessed as time required for 99.9% reduction in fungal growth at 32 mg/L by time-kill assay; assay type: functional
Candida parapsilosis [15] = test: Antifungal activity against Candida parapsilosis clinical isolate bloodstream form assessed as time required for 99% reduction in fungal growth at 4 mg/L by time-kill assay; assay type: functional
Candida metapsilosis [16] = test: Antifungal activity against Candida metapsilosis clinical isolate bloodstream form assessed as time required for 99.9% reduction in fungal growth at 16 mg/L by time-kill assay; assay type: functional
Candida metapsilosis [17] = test: Antifungal activity against Candida metapsilosis clinical isolate bloodstream form assessed as time required for 90% reduction in fungal growth at 32 mg/L by time-kill assay; assay type: functional
Candida metapsilosis [18] = test: Antifungal activity against Candida metapsilosis clinical isolate bloodstream form assessed as induction of fungal killing rate at 0.03 to 32 mg/L measured at 6 hrs by time-kill assay; assay type: functional, organism-based
Candida orthopsilosis [19] = test: Fungicidal activity against Candida orthopsilosis isolate CP-151 bloodstream form by CLSI method; assay type: functional; settings: Lodderomyces orthopsilosis
Candida orthopsilosis [20] = test: Antifungal activity against Candida orthopsilosis clinical isolate bloodstream form assessed as time required for 99% reduction in fungal growth at 32 mg/L by time-kill assay; assay type: functional
Candida metapsilosis [21] = test: Fungicidal activity against Candida metapsilosis isolate CP-132 bloodstream form by CLSI method; assay type: functional; settings: Lodderomyces metapsilosis
Candida orthopsilosis [22] = test: Fungicidal activity against Candida orthopsilosis isolate CP-150 bloodstream form by CLSI method; assay type: functional; settings: Lodderomyces orthopsilosis
Candida orthopsilosis [23] = test: Antifungal activity against Candida orthopsilosis clinical isolate bloodstream form assessed as time required for 50% reduction in fungal growth at 1 mg/L by time-kill assay; assay type: functional
Candida orthopsilosis [24] = test: Antifungal activity against Candida orthopsilosis clinical isolate bloodstream form assessed as time required for 99% reduction in fungal growth at 1 mg/L by time-kill assay; assay type: functional
Candida parapsilosis [25] = test: Antifungal activity against Candida parapsilosis clinical isolate bloodstream form assessed as time required for 50% reduction in fungal growth at 1 mg/L by time-kill assay; assay type: functional
Candida parapsilosis [26] = test: Antifungal activity against Candida parapsilosis clinical isolate bloodstream form assessed as time required for 50% reduction in fungal growth at 32 mg/L by time-kill assay; assay type: functional
Candida orthopsilosis [27] = test: Antifungal activity against Candida orthopsilosis clinical isolate bloodstream form assessed as time required for 50% reduction in fungal growth at 16 mg/L by time-kill assay; assay type: functional
Candida parapsilosis [28] = test: Fungicidal activity against Candida parapsilosis ATCC 22019 bloodstream form by CLSI method; assay type: functional; settings: Lodderomyces parapsilosis
Candida orthopsilosis [29] = test: Antifungal activity against Candida orthopsilosis clinical isolate bloodstream form assessed as time required for 50% reduction in fungal growth at 32 mg/L by time-kill assay; assay type: functional
Candida metapsilosis [30] = test: Antifungal activity against Candida metapsilosis clinical isolate bloodstream form assessed as time required for 99.9% reduction in fungal growth at 0.25 mg/L by time-kill assay; assay type: functional
Candida parapsilosis [31] = test: Antifungal activity against Candida parapsilosis clinical isolate bloodstream form assessed as time required for 99.9% reduction in fungal growth at 16 mg/L by time-kill assay; assay type: functional
Candida orthopsilosis [32] = test: Antifungal activity against Candida orthopsilosis clinical isolate bloodstream form assessed as time required for 99.9% reduction in fungal growth at 4 mg/L by time-kill assay; assay type: functional
Candida parapsilosis [33] = test: Antifungal activity against Candida parapsilosis clinical isolate bloodstream form assessed as time required for 50% reduction in fungal growth at 0.25 mg/L by time-kill assay; assay type: functional
Candida parapsilosis [34] = test: Fungicidal activity against Candida parapsilosis isolate CP-301 bloodstream form by CLSI method; assay type: functional; settings: Lodderomyces parapsilosis
Candida orthopsilosis [35] = test: Antifungal activity against Candida orthopsilosis clinical isolate bloodstream form assessed as time required for 90% reduction in fungal growth at 1 mg/L by time-kill assay; assay type: functional
Candida orthopsilosis [36] = test: Antifungal activity against Candida orthopsilosis clinical isolate bloodstream form assessed as induction of fungal killing rate at 0.03 to 32 mg/L measured at 6 hrs by time-kill assay; assay type: functional, organism-based
Candida parapsilosis [37] = test: Antifungal activity against Candida parapsilosis clinical isolate bloodstream form assessed as time required for 90% reduction in fungal growth at 0.25 mg/L by time-kill assay; assay type: functional
Candida metapsilosis [38] = test: Antifungal activity against Candida metapsilosis clinical isolate bloodstream form assessed as time required for 90% reduction in fungal growth at 1 mg/L by time-kill assay; assay type: functional
Candida orthopsilosis [39] = test: Antifungal activity against Candida orthopsilosis clinical isolate bloodstream form assessed as time required for 90% reduction in fungal growth at 0.25 mg/L by time-kill assay; assay type: functional
Candida metapsilosis [40] = test: Antifungal activity against Candida metapsilosis clinical isolate bloodstream form assessed as time required for 99.9% reduction in fungal growth at 4 mg/L by time-kill assay; assay type: functional
Candida parapsilosis [41] = test: Antifungal activity against Candida parapsilosis clinical isolate bloodstream form assessed as time required for 90% reduction in fungal growth at 4 mg/L by time-kill assay; assay type: functional
Candida metapsilosis [42] = test: Antifungal activity against Candida metapsilosis clinical isolate bloodstream form assessed as time required for 99% reduction in fungal growth at 1 mg/L by time-kill assay; assay type: functional
Candida metapsilosis [43] = test: Antifungal activity against Candida metapsilosis clinical isolate bloodstream form assessed as time required for 50% reduction in fungal growth at 4 mg/L by time-kill assay; assay type: functional

`CC[C@H](C)C[C@H](C)CCCCCCCCC(=O)N[C@H]1C[C@@H](O)[C@@H](NCCN)NC(=O)[C@@H]2[C@@H](O)CCN2C(=O)[C@H]([C@H](O)CCN)NC(=O)[C@H]([C@H](O)[C@@H](O)c2ccc(O)cc2)NC(=O)[C@@H]2C[C@@H](O)CN2C(=O)[C@H]([C@@H](C)O)NC1=O` [CASPOFUNGIN] was tested, and the MIC (Candida metapsilosis [1]) was 0.5 µg/mL (≈ 0.457 µM), the Time (Candida orthopsilosis [2]) was 38.46 h and the Time (Candida metapsilosis [3]) was 1.99 h. For the same compound, the Time (Candida metapsilosis [4]) was 25.58 h, the Time (Candida metapsilosis [5]) was >48 h and the Time (Candida parapsilosis [6]) was >48 h. For the same compound, the Activity (Candida metapsilosis [7]) was “Active”, the Time (Candida parapsilosis [8]) was >48 h and the Time (Candida metapsilosis [9]) was 8.61 h. The Activity (Candida parapsilosis [10]) was “inactive”, the Time (Candida parapsilosis [11]) was 7.7 h and the Time (Candida metapsilosis [12]) was 13.2 h. The Time (Candida metapsilosis [13]) was 2.59 h, the Time (Candida orthopsilosis [14]) was >48 h and the Time (Candida parapsilosis [15]) was >48 h. For the same compound, the Time (Candida metapsilosis [16]) was 25.82 h, the Time (Candida metapsilosis [17]) was 6.6 h and the Activity (Candida metapsilosis [18]) was “inactive”. The MIC (Candida orthopsilosis [19]) was 0.5 µg/mL (≈ 0.457 µM), the Time (Candida orthopsilosis [20]) was >48 h and the MIC (Candida metapsilosis [21]) was 0.25 µg/mL (≈ 0.229 µM). The MIC (Candida orthopsilosis [22]) was 0.5 µg/mL (≈ 0.457 µM), the Time (Candida orthopsilosis [23]) was 7.45 h and the Time (Candida orthopsilosis [24]) was >48 h. The Time (Candida parapsilosis [25]) was 22.3 h, the Time (Candida parapsilosis [26]) was 1.99 h and the Time (Candida orthopsilosis [27]) was 3.86 h. For the same compound, the MIC (Candida parapsilosis [28]) was 1 µg/mL (≈ 0.915 µM), the Time (Candida orthopsilosis [29]) was 10.53 h and the Time (Candida metapsilosis [30]) was >48 h. For the same compound, the Time (Candida parapsilosis [31]) was >48 h, the Time (Candida orthopsilosis [32]) was 34.05 h and the Time (Candida parapsilosis [33]) was >48 h. For the same compound, the MIC (Candida parapsilosis [34]) was 2 µg/mL (≈ 1.83 µM), the Time (Candida orthopsilosis [35]) was 24.75 h and the Activity (Candida orthopsilosis [36]) was “inactive”. For the same compound, the Time (Candida parapsilosis [37]) was >48 h, the Time (Candida metapsilosis [38]) was >48 h and the Time (Candida orthopsilosis [39]) was >48 h. The Time (Candida metapsilosis [40]) was >48 h, the Time (Candida parapsilosis [41]) was 25.58 h and the Time (Candida metapsilosis [42]) was >48 h. For the same compound, the Time (Candida metapsilosis [43]) was 7.7 h.
